Measured values published in patent publication US20240368664A1, “LIVE YEAST BIOSENSORS AND METHODS OF USE THEREOF” (priority 2021, published 2024).
“And” between values parts separate entries of the source, which are not always exact repeats. Equal entries are not always repeated. Where two headings read alike, the source gives them in different places. No end group written: not given here.

Assays:
[1] = Cyclic voltammetry of peptides and copper-peptide complexes; type: physicochemical; conditions: for redox potential peak of the Cu2+ complex: 1 mM tripeptide, 1 mM CuCl2, 50 mM Tris/HCl (pH 7.4), 0.1 M NaClO4, glassy carbon, 0.3 V/s; for potential peaks in cyclic voltammogram: 500 μM peptide in 10 mM KCl, scan rates 0.2, 0.1, 0.05 V/s
[2] = Metal-binding peptide absorbance scan; type: physicochemical
[3] = target: T1, Candida albicans pheromone GPCR CaSte2 (Candida albicans); assay: cell-based or functional assay
T1 sequence: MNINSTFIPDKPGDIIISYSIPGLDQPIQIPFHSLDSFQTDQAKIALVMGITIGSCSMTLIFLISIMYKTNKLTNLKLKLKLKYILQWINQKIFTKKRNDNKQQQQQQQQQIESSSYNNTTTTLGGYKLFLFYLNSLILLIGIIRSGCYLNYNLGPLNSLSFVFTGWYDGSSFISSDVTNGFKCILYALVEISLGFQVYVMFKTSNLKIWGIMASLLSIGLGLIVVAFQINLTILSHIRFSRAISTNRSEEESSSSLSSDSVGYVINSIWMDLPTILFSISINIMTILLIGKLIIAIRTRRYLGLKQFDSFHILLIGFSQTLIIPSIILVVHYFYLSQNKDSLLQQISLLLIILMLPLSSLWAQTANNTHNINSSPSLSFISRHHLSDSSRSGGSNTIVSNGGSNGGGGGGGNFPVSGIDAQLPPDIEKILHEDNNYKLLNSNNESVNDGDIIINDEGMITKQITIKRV

[4] = target: T1, Candida albicans pheromone GPCR CaSte2 (Candida albicans); assay: cell-based or functional assay; design: EC50 compared to the native CaPep (orders of magnitude): unit not given beside the values
[5] = target: SpSte2 with peptide proteases (Schizosaccharomyces pombe, UniProt Q00619); assay: SpSte2 biosensor dose-response with complementary and non-complementary proteases; type: cell-based
[6] = tested on: Aspergillus spp and S. cerevisiae GPCRs; type: cell-based; conditions: 40 μM peptide
Procedure: (§1) FIGS. 6A-6B show Aspergillus spp peptide cross-reactivity with Aspergillus spp GPCRs. […] The test concentration was set at 40 μM of a given peptide ligand.
(§2) Next, 13 GPCRs of all genome-mined Aspergillus species, including A. fumigatus from Example 1 and S. cerevisiae, along with inducible fluorescent readout were integrated into optimized parent strain. S. cerevisiae was included to test cross-reactivity with S. cerevisiae GPCR and peptide, since this peptide/GPCR pair will be used for building multi-cellular amplification communities. Then, each strain was activated with all Aspergillus peptides and S. cerevisiae peptide (FIG. 6A). Most of the Aspergillus GPCRs were responsive to at least one peptide, except A. terreus, A. flavus/A. oryzae (same GPCR sequence), A. niger and A. nidulans which were not responsive to any tested peptide. […] The majority of peptides have the same sequence (A. fischeri, A. fumigatus, A. lentulus, A. novofumigatus, A. udagawae and A. viridinutans) and the other active peptides differ only in the third amino acid position from N-terminus (A. clavatus, A. flavus and A. oryzae).

[7] = target: S. cerevisiae pheromone peptide (ScPep) (Saccharomyces cerevisiae); assay: cell-based or functional assay
[8] = tested on: CaSte2; conditions: CaSte2 (yTC384), no protease; Hill function best-fit ± standard error
[9] = tested on: CaSte2 with protease CaBar1; conditions: for Hill Slope: CaSte2 + CaBar1 (yBB02), Hill function best-fit ± standard error; for cleavage by CaBar1 protease: judged from CaSte2 activation with/without CaBar1
[10] = tested on: CaSte2 with protease CaBar1; conditions: read-out: "EC50" of the first response phase; biphasic dose-response, phase treated as separate Hill fit
[11] = tested on: live yeast biosensor
[12] = target: T2, Botrytis cinerea cognate pheromone receptor (BcSte2) (Botrytis cinerea); assay: cell-based or functional assay
T2 sequence: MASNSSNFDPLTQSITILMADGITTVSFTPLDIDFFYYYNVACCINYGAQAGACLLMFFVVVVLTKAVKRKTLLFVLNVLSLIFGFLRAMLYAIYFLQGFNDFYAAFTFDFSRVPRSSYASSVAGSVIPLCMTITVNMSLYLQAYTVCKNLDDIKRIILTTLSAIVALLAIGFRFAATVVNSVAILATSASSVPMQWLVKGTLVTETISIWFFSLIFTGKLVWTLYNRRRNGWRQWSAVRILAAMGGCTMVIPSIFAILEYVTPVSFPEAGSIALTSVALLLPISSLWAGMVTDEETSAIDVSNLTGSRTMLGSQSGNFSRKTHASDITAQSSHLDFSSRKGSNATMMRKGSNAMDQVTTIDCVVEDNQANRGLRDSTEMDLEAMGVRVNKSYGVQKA

[13] = tested on: CaSte2 with protease CaBar1
[14] = tested on: A. clavatus GPCR; type: cell-based; conditions: 40 μM peptide
Procedure: as §1, §2

[15] = target: C. albicans pheromone peptide (CaPep) (Candida albicans); assay: cell-based or functional assay
[16] = target: S. japonicus pheromone peptide (SjPep) (Schizosaccharomyces japonicus); assay: cell-based or functional assay
[17] = target: T3, Candida parapsilosis pheromone GPCR CpSte2 (native) (Candida parapsilosis); assay: cell-based or functional assay
T3 sequence: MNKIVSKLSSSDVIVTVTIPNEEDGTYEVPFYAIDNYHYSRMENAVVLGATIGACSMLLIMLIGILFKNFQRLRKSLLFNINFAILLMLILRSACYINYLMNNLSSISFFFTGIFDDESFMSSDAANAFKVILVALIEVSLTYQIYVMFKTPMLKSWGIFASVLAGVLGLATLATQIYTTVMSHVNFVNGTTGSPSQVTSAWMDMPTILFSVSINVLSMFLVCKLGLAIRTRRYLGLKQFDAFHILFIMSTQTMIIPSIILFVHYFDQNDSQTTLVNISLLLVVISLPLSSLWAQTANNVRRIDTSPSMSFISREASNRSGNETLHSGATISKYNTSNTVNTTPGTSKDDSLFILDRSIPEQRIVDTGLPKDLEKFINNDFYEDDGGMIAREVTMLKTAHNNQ

[18] = tested on: CpSte2; type: cell-based, Candida parapsilosis
[19] = tested on: SoSte2 with peptide proteases; type: cell-based, Schizosaccharomyces octosporus
[20] = target: T4, Candida albicans pheromone GPCR CaSte2 (Candida albicans); assay: cell-based or functional assay
T4 chain: T1 sequence

[21] = 1 mM copper, 1 mM peptide, 50 mM Tris/HCl, NaClO4 buffer

SpSte2 with peptide proteases, sequence (Q00619 whole entry): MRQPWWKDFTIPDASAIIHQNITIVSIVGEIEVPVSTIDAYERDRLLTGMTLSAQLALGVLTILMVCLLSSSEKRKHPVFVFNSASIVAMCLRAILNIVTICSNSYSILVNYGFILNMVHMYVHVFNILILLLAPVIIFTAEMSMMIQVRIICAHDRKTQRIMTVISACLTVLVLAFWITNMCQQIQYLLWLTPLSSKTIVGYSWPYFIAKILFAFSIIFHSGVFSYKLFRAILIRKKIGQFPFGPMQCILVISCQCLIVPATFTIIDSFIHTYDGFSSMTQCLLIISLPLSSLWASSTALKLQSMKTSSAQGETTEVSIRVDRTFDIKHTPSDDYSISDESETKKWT

His-His-Trp
redox potential peak of the Cu2+ complex [1]: 0.8 V
absorbance maxima of copper complexes [2, 21]: 620 nm
absorbance peaks of nickel complexes ([2]; nickel complexes): did not show absorbance peaks

CaPep11A (peptide)
Top [3]: 180 A.U. and 120 A.U.
decrease in maximal activation compared to the native CaPep [4]: 50%

TYADFLRAYQSWNTFVNPDRPNL [SpPep]
EC50 [5]: > 100000 nM
cleavage by ScBar1 and CaBar1 ([5]; ScBar1, CaBar1): did not cleave
shift of apparent EC50 by non-complementary proteases ([5]; SjSxa2 and SoSxa2): between half and one order of magnitude
response with complementary protease ([5]; SpSxa2, within measured concentration range): practically completely attenuated the response

CaPep10A (peptide)
LogEC50 [3]: -4.6 log M and -4.2 log M
Top [3]: 180 A.U. and 98 A.U.
EC50 compared to the native CaPep (orders of magnitude) [4]: 2

WCRFAGRIC (SEQ ID NO: 1) or WCRFRGQVC [A. nidulans peptide]
activation of tested GPCRs [6]: did not activate any tested GPCR

DAHK (UniProt P02768 25-28, looked up, fragment)
absorbance maxima of copper complexes [2, 21]: 520 nm

Saccharomyces cerevisiae Bar1 aspartyl protease (ScBar1) (from UniProt P12630 25-587) (enzyme)
shift of apparent EC50 on the cognate GPCR with the protease co-expressed (order of magnitude) [7]: 1

KKH
absorbance maxima of copper complexes [2, 21]: 620 nm

GARLTNFGYFEPA [CaPep2A13A]
Hill Slope [8]: 1.2 ± 0.1
Hill Slope [9]: 0.86 ± 0.10
EC50 ([9]; biosensor with protease CaBar1 under intermediate pRPL18B promoter, 10-h incubation): ~70 nM
cleavage by CaBar1 protease [9]: non-cleavable
EC50 [10]: ~0.3 nM

SDS
concentration that does not impact the vitality and function of the live yeast biosensor [11]: up to 0.01%

BcPep with its first cysteine changed into serine (peptide)
maximal activation compared to the original BcPep [12]: 4 fold

His-Ala-His
redox potential peak of the Cu2+ complex [1]: 1.1 V

CC(C)C[C@H](NC(=O)[C@H](CCCNC(=N)N)NC(=O)[C@H](Cc1ccccc1)NC(=O)CN)C(=O)N[C@H](C(=O)N[C@@H](CC(N)=O)C(=O)N[C@@H](Cc1ccccc1)C(=O)NCC(=O)N[C@@H](Cc1ccc(O)cc1)C(=O)N[C@@H](Cc1ccccc1)C(=O)N[C@@H](CCC(=O)O)C(=O)N1CCC[C@H]1C(=O)N[C@@H](C)C(=O)O)[C@@H](C)O [CaPep13A]
Hill Slope [8]: 0.81 ± 0.04
Hill Slope [9]: 0.94 ± 0.06
cleavage by CaBar1 protease [9]: cleavable
cleavage by CaBar1 protease ([9]; listed as GFRLTNFGYFEPA): specifically cleaved
EC50 ([13]; +CaBar1 strain, lycopene, 1-h preincubation before adding peptides, 8-h incubation): 1000 nM
effect of CaBar1 on color onset, lycopene readout ([13]; liquid culture, same peptide concentrations, 1-h preincubation, 8-h incubation (FIG. 37)): diminishes color onset

Tween20
concentration that does not impact the vitality and function of the live yeast biosensor [11]: up to 0.05%

BcPep with its second cysteine changed into serine (peptide)
maximal activation compared to the original BcPep [12]: 4 fold

WCALPGQGC [A. oryzae peptide]
response of A. clavatus GPCR [14]: strongest response

Candida albicans Bar1 aspartyl protease (CaBar1) (enzyme)
shift of apparent EC50 on the cognate GPCR with the protease co-expressed (order of magnitude) [15]: 1

O.O.[Cl][Cu][Cl] [Copper, CuCl2×2H2O]
absorbance peak ([2]; copper alone in Tris/HCl buffer): 630 nm

AAH
absorbance maxima of copper complexes [2, 21]: 520 nm

AfPep: natural fungal peptide containing two cysteine residues (WCHLPGQGC; Synthetic: AfPep)
potential peaks in cyclic voltammogram [1]: None of the tested peptides showed any unique and distinguishable potential peaks

CaPep12A13A (peptide)
LogEC50 [3]: -4.8 log M and -4.5 log M
Top [3]: 170 A.U.
EC50 compared to the native CaPep (orders of magnitude) [4]: 2

Schizosaccharomyces japonicus serine carboxypeptidase Sxa2 (SjSxa2) (enzyme)
shift of apparent EC50 on the cognate GPCR with the protease co-expressed (order of magnitude) [16]: 1

CaPep9A10A (peptide)
LogEC50 [3]: -4.7 log M and -4.6 log M
Top [3]: 570 A.U. and 510 A.U.
EC50 compared to the native CaPep (orders of magnitude) [4]: 2

CaPep12A (peptide)
LogEC50 [3]: -5.3 log M and -5 log M
Top [3]: 580 A.U. and 540 A.U.
EC50 compared to the native CaPep (orders of magnitude) [4]: 2

Candida parapsilosis cognate peptide (CpPep)
EC50, mCherry, yMJ194 [17]: 3 nM
EC50, mCherry, yTC453 [17]: 9 nM
maximal activation, mCherry, yMJ194 [17]: 250 A.U.
maximal activation, mCherry, yTC453 [17]: 3300 A.U.

PHGGGWGQ
absorbance maxima of copper complexes [2]: 620 nm
absorbance peaks of nickel complexes [2]: did not show absorbance peaks

KPHWTTYGYYEPQ [CpPep]
basal expression ([18]; optimized strain yTC453): ~0 A.U.
EC50 ([18]; yMJ194, natural pathway): ~3 nM
maximal activation ([18]; yMJ194, natural pathway): ~250 A.U.
EC50 ([18]; yTC453, optimized): ~9 nM
maximal activation ([18]; yTC453, optimized): ~3,300 A.U.

GWIGRCGVPGSSC [BcomPep, Baudoinia compniacensis mating peptide]
potential peaks in cyclic voltammogram [1]: None of the tested peptides showed any unique and distinguishable potential peaks

WCVLPGQPC [A. niger peptide]
activation of tested GPCRs [6]: did not activate any tested GPCR

GHK
absorbance maxima of copper complexes [2, 21]: 620 nm
absorbance peaks of nickel complexes ([2]; nickel complexes): did not show absorbance peaks

TYEDFLRVYKNWWSFQNPDRPDL [SoPep]
cleavage by ScBar1 and CaBar1 [19]: did not cleave
shift of apparent EC50 by non-complementary proteases [19]: between half and one order of magnitude
shift of apparent EC50 towards higher concentration by complementary protease [19]: one and a half orders of magnitude

WCELPGQGC [A. clavatus peptide]
response of A. clavatus GPCR [14]: strongest response

B1: CaPep13A (peptide)
peptide: GFRLTNFGYFEPA
modifications: not checked
EC50, lycopene readout, strains preincubated, +CaBar1 [20]: 1000 nM
EC50, lycopene readout, strains preincubated, -CaBar1 [20]: 80 nM
Top [20]: 820 A.U. and 590 A.U.

B2: CaPep2A (peptide)
peptide: GARLTNFGYFEPG
modifications: not checked
EC50, ymTurquoise2, strain with the protease CaBar1 [20]: 40 nM
EC50, ymTurquoise2, strain without the protease [20]: 50 nM
LogEC50 [20]: -7.4 log M and -6.9 log M
Top [20]: 460 A.U. and 430 A.U.
